Measurements: ChEMBL document CHEMBL1201862, “PubChem BioAssay data set” (2004)
Each block holds one compound with its values, some of them ahead of it. Calls of active or inactive are those of the source.

Legend:
[1] = inhibitors of Vif binding to APOBEC3G peptide, primary screen, biochemical, TR-FRET, GST-Vif 1-94, biotin-A3G peptide, dose response retest (AID 1117319); format: functional;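 also: TR-FRET signal of purified GST-Vif binding a biotinylated A3G peptide; inhibitors lower the FRET signal by blocking Vif and A3G binding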
[2] = target: T1, Apoptotic protease-activating factor 1 (Homo sapiens, UniProt O14727); format: functional
T1 sequence (O14727 whole entry): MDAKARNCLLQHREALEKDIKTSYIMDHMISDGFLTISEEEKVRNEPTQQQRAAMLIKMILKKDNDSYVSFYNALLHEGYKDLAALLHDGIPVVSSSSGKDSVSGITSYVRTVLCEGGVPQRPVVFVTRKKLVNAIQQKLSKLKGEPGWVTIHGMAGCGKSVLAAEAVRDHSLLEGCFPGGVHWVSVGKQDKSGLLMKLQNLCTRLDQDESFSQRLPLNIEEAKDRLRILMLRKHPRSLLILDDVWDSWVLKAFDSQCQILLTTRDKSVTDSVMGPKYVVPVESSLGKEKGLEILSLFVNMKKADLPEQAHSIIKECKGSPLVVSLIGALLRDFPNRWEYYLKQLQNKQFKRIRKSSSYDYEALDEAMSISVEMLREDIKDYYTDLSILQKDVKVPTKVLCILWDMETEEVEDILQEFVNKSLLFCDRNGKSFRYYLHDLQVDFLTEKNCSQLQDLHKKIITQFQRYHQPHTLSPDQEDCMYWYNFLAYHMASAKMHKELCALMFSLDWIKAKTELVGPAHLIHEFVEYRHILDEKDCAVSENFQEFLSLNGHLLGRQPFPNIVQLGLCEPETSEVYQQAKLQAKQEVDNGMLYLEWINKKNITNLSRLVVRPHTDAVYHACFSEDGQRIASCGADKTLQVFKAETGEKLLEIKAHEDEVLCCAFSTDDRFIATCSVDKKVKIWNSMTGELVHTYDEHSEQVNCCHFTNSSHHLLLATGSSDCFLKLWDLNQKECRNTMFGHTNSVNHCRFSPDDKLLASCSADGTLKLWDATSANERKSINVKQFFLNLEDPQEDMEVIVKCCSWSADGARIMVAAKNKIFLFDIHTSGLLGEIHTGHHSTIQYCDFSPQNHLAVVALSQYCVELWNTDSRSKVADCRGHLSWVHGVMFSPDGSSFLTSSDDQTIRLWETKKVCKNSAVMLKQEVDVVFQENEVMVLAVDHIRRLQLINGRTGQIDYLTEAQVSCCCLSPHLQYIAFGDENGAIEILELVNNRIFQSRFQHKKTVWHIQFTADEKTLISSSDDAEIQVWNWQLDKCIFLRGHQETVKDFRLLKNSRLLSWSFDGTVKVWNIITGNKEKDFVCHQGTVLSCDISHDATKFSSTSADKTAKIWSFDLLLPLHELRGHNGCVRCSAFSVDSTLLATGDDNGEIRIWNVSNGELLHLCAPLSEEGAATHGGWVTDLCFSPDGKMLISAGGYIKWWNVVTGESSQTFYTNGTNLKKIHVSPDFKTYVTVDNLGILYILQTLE

Caspase-6 = target: T2, Caspase-6 (Homo sapiens, UniProt P55212); assay: human caspase-6 inhibitors, dose response, biochemical, VEID-R110 fluorescence, cherry-pick (AID 720632)
T2 sequence (P55212 whole entry): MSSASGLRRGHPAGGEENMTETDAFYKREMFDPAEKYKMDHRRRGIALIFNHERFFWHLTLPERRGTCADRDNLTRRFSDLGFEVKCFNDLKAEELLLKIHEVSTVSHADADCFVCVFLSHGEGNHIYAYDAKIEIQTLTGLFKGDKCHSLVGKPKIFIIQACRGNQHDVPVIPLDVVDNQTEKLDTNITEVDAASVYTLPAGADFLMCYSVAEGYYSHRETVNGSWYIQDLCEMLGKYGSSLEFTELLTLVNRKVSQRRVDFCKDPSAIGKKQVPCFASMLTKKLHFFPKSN

[3] = target: Tyrosyl-DNA phosphodiesterase 2 (Homo sapiens, UniProt O95551); assay: human TDP2 enzyme inhibitors, dose response, biochemical, epi absorbance, IC50 (AID 743297)
[4] = target: T3, Sentrin-specific protease 8 (Homo sapiens, UniProt Q96LD8); format: functional
T3 sequence (Q96LD8 whole entry): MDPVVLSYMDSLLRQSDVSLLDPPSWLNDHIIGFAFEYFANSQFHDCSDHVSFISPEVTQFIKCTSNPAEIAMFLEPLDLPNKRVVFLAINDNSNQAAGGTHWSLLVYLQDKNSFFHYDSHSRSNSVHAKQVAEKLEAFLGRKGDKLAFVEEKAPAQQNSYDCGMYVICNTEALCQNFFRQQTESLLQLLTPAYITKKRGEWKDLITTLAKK

SUMO-activating enzyme [5] = target: T4, SUMO-activating enzyme (Homo sapiens, UniProt Q9UBT2); assay: inhibitors of in vitro SUMOylation cascade, primary screen, biochemical, HTRF, uHTS (AID 2006); format: protein-complex assay
[6] = target: T5, Histone-lysine N-methyltransferase NSD2 (Homo sapiens, UniProt O96028); format: biochemical
T5 sequence (O96028 whole entry): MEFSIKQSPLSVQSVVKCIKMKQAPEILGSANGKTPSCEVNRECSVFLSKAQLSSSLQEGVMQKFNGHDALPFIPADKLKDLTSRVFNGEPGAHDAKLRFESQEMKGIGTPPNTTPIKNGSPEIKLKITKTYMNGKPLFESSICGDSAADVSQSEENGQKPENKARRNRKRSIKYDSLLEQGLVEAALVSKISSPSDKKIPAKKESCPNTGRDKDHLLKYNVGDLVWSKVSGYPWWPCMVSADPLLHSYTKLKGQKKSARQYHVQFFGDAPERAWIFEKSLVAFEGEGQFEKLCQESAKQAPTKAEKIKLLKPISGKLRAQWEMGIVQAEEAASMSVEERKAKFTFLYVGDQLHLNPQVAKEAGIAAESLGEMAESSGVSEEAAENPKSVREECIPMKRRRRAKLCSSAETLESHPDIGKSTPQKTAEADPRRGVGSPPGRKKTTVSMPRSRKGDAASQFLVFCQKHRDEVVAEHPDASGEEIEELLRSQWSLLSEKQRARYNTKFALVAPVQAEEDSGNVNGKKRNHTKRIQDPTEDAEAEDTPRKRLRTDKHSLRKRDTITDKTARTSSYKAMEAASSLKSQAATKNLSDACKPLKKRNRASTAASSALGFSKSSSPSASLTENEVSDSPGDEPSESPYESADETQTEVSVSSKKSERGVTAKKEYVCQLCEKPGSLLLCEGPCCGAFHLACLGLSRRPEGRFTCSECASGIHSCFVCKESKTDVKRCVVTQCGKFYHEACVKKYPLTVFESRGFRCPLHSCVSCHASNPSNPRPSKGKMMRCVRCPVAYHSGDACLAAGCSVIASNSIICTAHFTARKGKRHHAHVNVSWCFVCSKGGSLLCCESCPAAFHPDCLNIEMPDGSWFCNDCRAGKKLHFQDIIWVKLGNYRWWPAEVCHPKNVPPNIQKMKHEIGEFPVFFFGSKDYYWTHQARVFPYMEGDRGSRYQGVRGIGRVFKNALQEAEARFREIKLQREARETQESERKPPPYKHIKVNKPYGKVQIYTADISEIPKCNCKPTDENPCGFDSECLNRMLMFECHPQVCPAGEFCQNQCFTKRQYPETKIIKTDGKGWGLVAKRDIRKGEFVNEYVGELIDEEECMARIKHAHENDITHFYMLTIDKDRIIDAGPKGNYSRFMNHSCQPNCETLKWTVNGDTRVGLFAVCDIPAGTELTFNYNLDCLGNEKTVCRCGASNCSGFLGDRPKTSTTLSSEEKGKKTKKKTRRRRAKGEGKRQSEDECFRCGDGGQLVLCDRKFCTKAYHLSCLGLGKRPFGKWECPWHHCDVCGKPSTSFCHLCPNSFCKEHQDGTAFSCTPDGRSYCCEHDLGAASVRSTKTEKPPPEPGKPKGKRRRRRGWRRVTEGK

[7] = target: Glutathione-S-transferase (Schistosoma japonicum, UniProt Q26513); assay: biotin-GST/anti-GST TR-FRET signal inhibitors, dose response, artefact control for Vif-APOBEC3G degradation inhibitor project, biochemical (AID 1117362); format: functional
[8] = target: T3, Sentrin-specific protease 8; format: functional; remark: listed apart in the source
SUMO-activating enzyme [9] = target: T4, SUMO-activating enzyme; assay: SUMOylation inhibitor hit validation, confirmation, SUMOylation inhibitor project, biochemical, AlphaScreen (AID 2018); format: functional
[10] = target: T6, Zinc finger protein mex-5 (Caenorhabditis elegans, UniProt Q9XUB2); assay: MEX-5/TCR-2 RNA interaction inhibitors, dose response, biochemical, C. elegans, fluorescence polarization (AID 1960)
T6 sequence (Q9XUB2 whole entry): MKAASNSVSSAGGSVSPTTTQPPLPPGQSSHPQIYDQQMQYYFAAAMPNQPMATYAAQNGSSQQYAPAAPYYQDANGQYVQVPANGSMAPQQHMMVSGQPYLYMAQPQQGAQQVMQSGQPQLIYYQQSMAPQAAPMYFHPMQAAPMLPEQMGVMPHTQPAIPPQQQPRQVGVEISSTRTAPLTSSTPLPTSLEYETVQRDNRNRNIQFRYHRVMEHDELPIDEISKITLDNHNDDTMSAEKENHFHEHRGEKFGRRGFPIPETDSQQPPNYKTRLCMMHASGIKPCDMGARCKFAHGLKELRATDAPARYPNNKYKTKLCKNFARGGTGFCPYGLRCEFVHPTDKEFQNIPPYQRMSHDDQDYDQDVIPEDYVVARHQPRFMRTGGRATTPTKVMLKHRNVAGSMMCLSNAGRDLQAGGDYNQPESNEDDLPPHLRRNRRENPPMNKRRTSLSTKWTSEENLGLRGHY

[11] = target: T7, Mannose-6-phosphate isomerase (Homo sapiens, UniProt P34949); assay: inhibitors of human PMI, primary screen, biochemical, fluorescence intensity, coupled assay (AID 1209)
T7 sequence (P34949 whole entry): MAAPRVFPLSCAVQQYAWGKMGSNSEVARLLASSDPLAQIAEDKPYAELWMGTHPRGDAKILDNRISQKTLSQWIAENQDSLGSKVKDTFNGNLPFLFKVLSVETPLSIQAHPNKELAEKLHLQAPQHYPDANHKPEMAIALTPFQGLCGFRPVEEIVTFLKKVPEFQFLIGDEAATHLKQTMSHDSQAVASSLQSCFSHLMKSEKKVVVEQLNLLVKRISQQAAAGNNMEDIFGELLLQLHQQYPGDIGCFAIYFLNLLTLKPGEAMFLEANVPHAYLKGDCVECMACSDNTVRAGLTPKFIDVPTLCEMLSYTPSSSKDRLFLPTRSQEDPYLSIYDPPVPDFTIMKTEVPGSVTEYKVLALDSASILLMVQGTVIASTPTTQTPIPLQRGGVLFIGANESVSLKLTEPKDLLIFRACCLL

[12] = target: T8, RNA-binding protein pos-1 (Caenorhabditis elegans, UniProt G5EF15); assay: inhibitors of POS-1/mex-3 RNA binding, dose response, biochemical, fluorescence polarization (AID 1964);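 also: purified POS-1 fused to maltose binding protein made in E. coli; potency of compounds blocking POS-1 binding to fluorescent RNA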
T8 sequence (G5EF15 whole entry): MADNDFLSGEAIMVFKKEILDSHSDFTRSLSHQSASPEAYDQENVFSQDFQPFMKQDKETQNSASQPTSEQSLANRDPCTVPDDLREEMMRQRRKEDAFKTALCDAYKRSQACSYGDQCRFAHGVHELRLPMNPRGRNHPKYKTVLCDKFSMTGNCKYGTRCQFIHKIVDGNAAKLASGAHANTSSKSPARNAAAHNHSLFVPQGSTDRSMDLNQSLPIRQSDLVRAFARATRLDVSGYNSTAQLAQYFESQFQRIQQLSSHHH

Protein Tat = Protein Tat (Human immunodeficiency virus type 1 group M subtype B (isolate HXB2)(HIV-1), UniProt P04608); format: functional;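 also: tat binding to TAR RNA read out by fluorescence polarization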
Protein Tat, sequence (P04608 whole entry): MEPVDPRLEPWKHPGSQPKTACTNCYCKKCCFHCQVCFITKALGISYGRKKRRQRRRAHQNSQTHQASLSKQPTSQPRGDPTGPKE

T4 sequence (Q9UBE0 whole entry): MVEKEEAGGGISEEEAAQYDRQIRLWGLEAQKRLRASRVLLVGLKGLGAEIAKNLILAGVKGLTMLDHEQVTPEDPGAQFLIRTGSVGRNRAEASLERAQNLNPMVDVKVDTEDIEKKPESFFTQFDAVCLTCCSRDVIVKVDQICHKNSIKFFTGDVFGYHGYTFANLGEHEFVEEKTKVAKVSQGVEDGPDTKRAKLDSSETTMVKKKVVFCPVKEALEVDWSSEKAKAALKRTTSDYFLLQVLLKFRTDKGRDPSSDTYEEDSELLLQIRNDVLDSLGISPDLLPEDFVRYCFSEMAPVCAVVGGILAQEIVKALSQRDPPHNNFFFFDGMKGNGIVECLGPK
T4 sequence (Q9UBT2 whole entry): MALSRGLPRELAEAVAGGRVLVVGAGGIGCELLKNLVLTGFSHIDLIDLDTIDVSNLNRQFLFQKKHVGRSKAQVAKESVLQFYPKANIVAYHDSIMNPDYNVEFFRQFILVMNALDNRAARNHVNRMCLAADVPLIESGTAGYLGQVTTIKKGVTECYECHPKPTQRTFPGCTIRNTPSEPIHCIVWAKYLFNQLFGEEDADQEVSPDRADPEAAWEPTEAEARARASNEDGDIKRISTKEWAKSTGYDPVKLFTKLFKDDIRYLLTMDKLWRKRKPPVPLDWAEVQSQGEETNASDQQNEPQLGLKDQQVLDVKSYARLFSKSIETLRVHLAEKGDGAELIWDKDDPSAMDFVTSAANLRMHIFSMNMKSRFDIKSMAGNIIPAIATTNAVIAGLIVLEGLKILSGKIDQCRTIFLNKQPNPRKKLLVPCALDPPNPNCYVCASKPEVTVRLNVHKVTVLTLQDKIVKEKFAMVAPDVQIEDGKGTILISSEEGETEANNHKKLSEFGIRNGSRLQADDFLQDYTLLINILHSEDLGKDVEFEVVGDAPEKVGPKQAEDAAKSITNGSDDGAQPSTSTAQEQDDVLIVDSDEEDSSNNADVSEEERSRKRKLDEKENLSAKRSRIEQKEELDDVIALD
Glutathione-S-transferase, sequence (Q26513 whole entry): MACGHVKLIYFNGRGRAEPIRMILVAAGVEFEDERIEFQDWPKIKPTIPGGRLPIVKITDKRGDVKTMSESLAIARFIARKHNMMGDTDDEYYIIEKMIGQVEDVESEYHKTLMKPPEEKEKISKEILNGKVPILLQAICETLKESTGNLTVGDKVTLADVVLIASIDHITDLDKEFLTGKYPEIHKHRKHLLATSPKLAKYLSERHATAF
Tyrosyl-DNA phosphodiesterase 2, sequence (O95551 whole entry): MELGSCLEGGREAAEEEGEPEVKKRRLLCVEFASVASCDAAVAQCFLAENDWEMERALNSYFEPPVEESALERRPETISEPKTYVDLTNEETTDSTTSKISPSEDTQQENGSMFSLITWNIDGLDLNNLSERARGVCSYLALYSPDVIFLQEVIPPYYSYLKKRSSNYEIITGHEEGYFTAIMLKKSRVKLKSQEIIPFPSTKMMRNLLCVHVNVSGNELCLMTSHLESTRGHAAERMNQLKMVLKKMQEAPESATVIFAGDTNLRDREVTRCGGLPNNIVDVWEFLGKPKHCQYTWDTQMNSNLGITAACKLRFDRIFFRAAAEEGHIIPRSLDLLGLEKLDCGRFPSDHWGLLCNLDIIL

IC50 [1]: > 100 µM (active)
Compound: O=C(NCCCN1CCOCC1)C1CC(=O)N(CCc2ccccc2)C1 (stereo not given)

IC50 [2]: 16.8 µM (active) | AC50 (Caspase-6): 12.6 µM (active) | IC50 [3]: 9.9 µM (active) | IC50 (SUMO-activating enzyme [5]): 16.2 µM (active) | AC50 [6]: 4.43 µM (active) | IC50 [7]: > 100 µM (active) | IC50 (SUMO-activating enzyme [9]): 2.7 µM (active)
Compound: CN(C)c1cc(Cl)c2nonc2c1N
IC50 [4]: 6.83 µM (active) | IC50 [8]: 8.12 µM (active)

EC50 [10]: 12.9 µM (active) | IC50 [11]: 39.5 µM (active) | EC50 [12]: 43.9 µM (active) | IC50 (Protein Tat): > 100 µM (active)
Compound: Cc1cc(O)c(Oc2cc(C)cc(O)c2O)c(O)c1

IC50 [1]: > 100 µM (active)
Compound: O=C(O)c1[nH]c2ccc(Cl)cc2c1CC(=O)N1CCN(C(=O)c2ccco2)CC1
